Data as given in patent publication US12084411B2, “Hinokitiol analogues, methods of preparing and pharmaceutical compositions thereof” (The Board of Trustees of the University of Illinois, priority 2018, dated 2024).
Entries after “also recorded” stand apart in the source; their conditions may differ.

Assays:
DMT1-deficient zebrafish = conditions: two days; for hemoglobinization (GFP-positive erythroids): 1 μM in water from 24 hpf; for number of fish with high hemoglobin levels (o-dianisidine): heterozygous cross of +/cdy fish
Method: The morpholinos (MOs) were purchased from GeneTools, LLC (Philomath, OR). The sequences of the MO used were as follows: dmt1 MO: 5′-[…]-3′; mfrnl MO: 5′-[…]-3′. Zebrafish embryos at the 1-cell stage were injected with MOs as previously described (72, 78). o-dianisidine staining for hemoglobinized cells in embryos was as previously described (79). Quantification by flow cytometry using fluorescently labeled erythrocytes from the transgenic Tg(globinLCR:eGFP) line (50) was performed as previously described (72, 75). Semi-quantitative RT-PCR of dmt1 mRNA in morphants was performed using custom designed probes as previously described (80). The sequences of the dmt1 primers are as follows: 5′-[…]-3′ (Fwd); 5′-[…]-3′ (Rev). The sequences of the control actb primers were as follows: 5′-[…]-3′ (Fwd); 5′-[…]-3′ (Rev).
(§1) Either mutant or morphant embryos were allowed to develop to >24 hours post fertilization (hpf), then dechorionated with pronase as previously described (81). The dechorionated embryos or morphants were then incubated in the presence of 1 μM hinokitiol (or vehicle) and 10 μM iron (III) citrate for an additional forty-eight hours. Vehicle treated embryos were exposed to […]. C2deOHino (1 μM) with iron (III) citrate (10 μM) was used as a negative control. Control and either mutant or morphant embryos at ˜72 hpf were either (a) directly stained by o-dianisidine (79) or (b) mechanically homogenized as previously described for flow cytometry (75, 78).

fet3Δftr1Δ yeast = test: Fe3+ uptake assay in yeast; assay type: cell-based, Saccharomyces cerevisiae
Method: Iron (III) uptake into wild type and fet3Δftr1Δ yeast was adapted from Kosman and coworkers (56). Overnight yeast cultures were repeatedly centrifuged and rinsed with water. The cell pellet was resuspended in MilliQ water, and diluted in SD media without FeCl3. The cells were incubated at 30° C. for 3 hours, centrifuged and rinsed with water twice. The cells were then suspended to 3×10^7 cells/mL in SD media containing 50 mM sodium citrate and 2% glucose. Hinokitiol or C2deOHino (from 40X stocks in DMSO) was added to a final concentration of 100 μM before ^55FeCl3 ([…]) was added to the yeast suspensions. The suspension was continuously homogenized before aliquots were taken and diluted with 10 mL of room temperature water. Cells were then collected via vacuum filtration through a 0.45 μm nitrocellulose filter (Millipore HAWP), and rinsed with room temperature water (×5 of 100 mL). The filters were then transferred to a scintillation vial containing 3 mL of scintillation cocktail for measuring radioactivity using a liquid scintillation counter.

[1] = Determination of small molecule iron binding (UV-Vis); conditions: pH 7.0
Method: Small molecule iron (III) binding was determined by UV-Vis spectroscopy of small molecules (30 μM) before and after addition of FeCl3 (10 μM) or iron (III) citrate (10 μM, Sigma F3388) in 10 mM MES/Tris buffer at pH=7.0. Iron (II) binding was determined by UV-Vis spectroscopy of small molecules (30 μM) and FeCl2 (10 μM) in a 25 mM MES/Tris buffer at pH=7.0 containing 62.5 mM sodium ascorbate.

[2] = test system: Alas2-deficient sauternes zebrafish; test: Hemoglobinization in Alas2-deficient sauternes zebrafish; assay type: in vivo, Danio rerio; conditions: heterozygous cross of +/sau fish, 1 μM, 48 hours
Method: as §1

[3] = test system: Mfrn1-deficient MEL cells; test: Hemoglobinization of Mfrn1-deficient MEL cells; assay type: cell-based, mouse; conditions: 1 μM
Method: Differentiation of MEL Cells with DMSO (FIG. 3D) To perform differentiation experiments with MEL cells (39), the indicated MEL cells were diluted to 1×10^5 cells/mL in MEL Complete media containing 10 μM iron (III) citrate and 2% DMSO in the absence or presence of 1 μM hinokitiol or C2deOHino (added from 1000X stock in DMSO) in 12-well plates. Cells were then incubated at 37° C. for 72 hours unless otherwise noted.
Hemoglobinized MEL cells were quantified three days after DMSO induction through o-dianisidine staining similar to previously reported (74). Cells were centrifuged three days after induction and rinsed with PBS. […] The number of stained cells were then quantified via ImageJ analysis and compared to the number of total cells in each image. […]
MEL cells were induced for differentiation as described above and incubated at 37° C. for 70 hours before addition of a saturated iron-transferrin (^55Fe2Tf) solution (40 nM final concentration from a 10 μM ^55Fe2Tf stock). […] After completion, the cells were counted with a hemocytometer, the media was removed after centrifugation, the cells were rinsed with PBS (×3), and the cell suspension was diluted in scintillation cocktail and radioactivity was determined. […] After completion, the cells were counted with a hemocytometer, the media was removed after centrifugation, and the cells were rinsed with PBS (×3). […]

[4] = test system: DMT1-deficient Belgrade (b/b) rats; test: 59Fe gut absorption in Belgrade rats; assay type: in vivo; conditions: 1.5 mg/kg, oral gavage
Method: ^59Fe gastrointestinal absorption of iron in 3-5-month-old b/b rats was characterized similar to the procedure described above in the presence of either 6 mM hinokitiol or 6 mM C2deOHino. To compare with the rate of normal iron uptake, age-matched sibling control (+/+ or +/b) Belgrade rats were tested by the same procedure except that ^59Fe was administered without small molecule. Blood (50 μL) was taken from the tail vein at 15, 30, 60, 120, 180, 240, and 360 minutes post administration. Radioactivity was quantified by gamma counting and calculated as the percentage of gavaged dose (±SEM). Animals were humanely euthanized at 6 hours.

[5] = DMT1-deficient morphant zebrafish

SMILES | hemoglobinization (GFP-positive erythroids) (DMT1-deficient zebrafish; [5]) | number of fish with high hemoglobin levels (o-dianisidine) (DMT1-deficient zebrafish) | 55Fe uptake into fet3Δftr1Δ yeast (fet3Δftr1Δ yeast) | iron binding [1] | hemoglobinization [2] | hemoglobinization [3] | reduction in 59Fe absorption relative to sibling controls (+/+ or +/b) [4] | observable toxicity (DMT1-deficient zebrafish; DMT1-deficient morphant zebrafish, 1 μM) | hemoglobinization ([2]; listed as Hinokitiol) | gut iron absorption ([4]; after one hour)
CC(C)c1cccc(=O)cc1 [C2deOHino, C2-deoxy hinokitiol] | no effect | no effect | no uptake up to 100 μM | does not bind iron; also recorded: cannot bind or transport iron | do not promote hemoglobinization | no effect | 2 fold | – | – | –
CC(C)c1cccc(=O)c(O)c1 [hinokitiol] | promoted hemoglobinization | increased the number of fish exhibiting high hemoglobin levels | dose-dependent increase in ^55Fe uptake from 5 to 100 μM | binds iron (III) | did not rescue | restored hemoglobinization | – | without observable toxicity | do not promote hemoglobinization | increased ^55Fe absorption back to control levels
